Where no end group is shown, it is not given here.
Test system: corneal epithelium
Assay: Action for extending corneal epithelium (in vitro), corneal blocks in tissue culture
Format: cell-based, male Japanese White rabbit
Conditions: for activity in corneal epithelium extension test: in combination with substance P; for Extension ratio (%): 24 hours culture, control = 100%, mean of six sections; for influence on the extension of corneal epithelium: peptide alone
Experimental: (1) Action For Extending Corneal Epithelium (In Vitro)
Using the cornea of a male Japanese White rabbit and according to the method of Nishida et al. (J. Cell Biol., 97, 1653-1657 (1983)), the length of corneal epithelium extension of the corneal section in a tissue culture system was used as a marker to examine the influence on corneal epithelium extension.
Corneal blocks cut off from rabbit corneal section (6 blocks per group) were cultured in culture media (TC-199) containing a test compound under conditions of 5% CO2 at 37° C. for 24 hours. After culturing, the corneal blocks were fixed in a mix solution of ethanol-glacial acetic acid (volume ratio: 95:5) and then embedded in paraffin to prepare sections. After paraffin was removed from the sections, the resulting sections were stained with hematoxylin-eosin to examine the extended length of the corneal epithelial cell layer with a microscope. As a control, the blocks cultured in the same manner in the culture media without any test compound were used.
Herein, the extension ratio in the table is the mean of six sections per group, as calculated when the elongated length of the control group was defined as the basal line (100%).

[1] = test peptide 1 nM + substance P (20 μM)

Row | Substance | Extension ratio (%) [1] [%] | Extension ratio (%) (test peptide alone, 1 nM) | other results
1 | GYGSSSRRAPQT (Human) [Gly-Tyr-Gly-Ser-Ser-Ser-Arg-Arg-Ala-Pro-Gln-Thr, the peptide composing the domain C of IGF-I] | 134 | 104 | activity in corneal epithelium extension test: had the activity
2 | Ser-Ser-Ser-Arg (SSSR; Human) | 138 | 101 | Extension ratio (%) (test peptide 1 nM + FGLM (20 μM)): 145%
3 | Phe-Gly-Leu-Met-NH2 (FGLM-NH2) [tetrapeptide on the C terminal of substance P, reference compound] |  |  | influence on the extension of corneal epithelium: not observed to have any influence; Extension ratio (%) (test peptide alone, 20 μM): 99%
4 | GSSSRRAP (Human) [Gly-Ser-Ser-Ser-Arg-Arg-Ala-Pro] | 140 | 97 | activity in corneal epithelium extension test: the activity still remained
5 | Substance P: polypeptide consisting of 11 amino acids (RPKPQQFFGLM-NH2; ends and bridges not checked; UniProt P20366 58-68, looked up) [reference compound] |  |  | influence on the extension of corneal epithelium: not observed to have any influence; Extension ratio (%) (test peptide alone, 20 μM): 94%
6 | ASSSRRAP (Human) [Ala-Ser-Ser-Ser-Arg-Arg-Ala-Pro] | 134 |  | 
7 | GSSSRR | 142 | 94 | 
8 | GSSSRAAP (Human) [Gly-Ser-Ser-Ser-Arg-Ala-Ala-Pro] | 150 |  | 
9 | Gly-Ser-Ser-Ser-Arg (GSSSR; Human) | 135 | 101 | 
10 | GSSSRAAAP (Human) [Gly-Ser-Ser-Ser-Arg-Ala-Ala-Ala-Pro] | 139 | 100 | 
11 | Ser-Ser-Ser-Arg-Arg (SSSRR; Human) | 136 | 98 | 
